One test addresses HDAC-3 (Homo sapiens, UniProt O15379). Put plainly: HDAC inhibitory activity assay with HDAC-3 (fluorophore/quencher peptide substrate). Format: biochemical. To be noted: enzyme/compound mix incubated at room temperature for 2 hours; reaction about 45 minutes; fluorescence read. The protocol: (§1) HDAC inhibitory activity of the compound of Example 1 was measured by an assay in which HDAC-1 or -3 were used as a target molecule. The test compound was suspended in and titrated in DMSO. It was then spotted into a 384-well test plate. The enzyme, HDAC-1 or -3, was diluted in assay buffer containing 25 mM Tris-HCl (pH 8.0), 137 mM NaCl, 2.7 mM KCl, and 0.01% Tween-20 and added to the pre-spotted compound. The enzyme/compound mix was incubated at room temperature for 2 hours. The peptide substrate containing a fluorophore/quencher pair was diluted in the same assay buffer and added to the compound/enzyme mix initiating the reaction. The reaction incubated at room temperature for about 45 minutes. A concentrated developer solution was diluted in the assay buffer, and added to the reaction. The reaction was incubated at room temperature for about 15 minutes and relative fluorescence was read on an instrument reader.

The next test deals with HDAC-1 (Homo sapiens, UniProt Q13547). Put plainly: HDAC inhibitory activity assay with HDAC-1 (fluorophore/quencher peptide substrate). The test is classed as biochemical. To be noted: enzyme/compound mix incubated at room temperature for 2 hours; reaction about 45 minutes; fluorescence read. The protocol: as §1

The IC50 is the point on the concentration scale where inhibition reaches its midpoint. Higher therefore signals weaker potency in that assay.

HDAC-3, sequence (O15379 whole entry, species assumed): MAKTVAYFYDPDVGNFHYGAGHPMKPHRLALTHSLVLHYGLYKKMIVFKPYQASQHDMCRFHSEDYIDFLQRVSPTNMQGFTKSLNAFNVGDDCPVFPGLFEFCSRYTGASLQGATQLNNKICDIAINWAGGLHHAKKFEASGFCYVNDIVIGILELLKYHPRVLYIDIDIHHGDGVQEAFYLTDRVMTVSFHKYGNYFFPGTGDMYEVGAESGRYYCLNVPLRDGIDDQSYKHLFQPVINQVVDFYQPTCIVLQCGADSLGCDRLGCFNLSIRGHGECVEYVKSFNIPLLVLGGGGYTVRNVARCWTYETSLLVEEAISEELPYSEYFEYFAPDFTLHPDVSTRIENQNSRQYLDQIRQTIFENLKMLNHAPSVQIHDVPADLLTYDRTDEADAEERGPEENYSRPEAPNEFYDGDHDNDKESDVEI
HDAC-3, sequence (Q9Y618 395-489 partner limits assumed, species assumed): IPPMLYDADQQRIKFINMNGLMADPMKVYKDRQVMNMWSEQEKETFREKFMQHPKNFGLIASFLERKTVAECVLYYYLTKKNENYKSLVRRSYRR
HDAC-1, sequence (Q13547 whole entry, species assumed): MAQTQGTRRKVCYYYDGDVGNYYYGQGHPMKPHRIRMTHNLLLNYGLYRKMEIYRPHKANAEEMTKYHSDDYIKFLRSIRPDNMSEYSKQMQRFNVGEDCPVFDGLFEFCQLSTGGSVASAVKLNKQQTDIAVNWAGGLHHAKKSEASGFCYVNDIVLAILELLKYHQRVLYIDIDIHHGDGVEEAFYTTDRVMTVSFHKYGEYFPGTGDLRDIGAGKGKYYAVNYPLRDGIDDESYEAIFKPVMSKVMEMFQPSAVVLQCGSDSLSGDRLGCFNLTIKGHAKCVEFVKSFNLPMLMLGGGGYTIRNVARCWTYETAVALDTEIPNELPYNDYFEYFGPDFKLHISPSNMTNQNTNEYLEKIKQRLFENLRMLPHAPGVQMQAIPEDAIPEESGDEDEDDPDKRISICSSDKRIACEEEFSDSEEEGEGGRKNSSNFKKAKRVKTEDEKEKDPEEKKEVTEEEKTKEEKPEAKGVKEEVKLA

For `Nc1ccccc1NC(=O)c1ccc(NC(=O)C(c2ccccc2)N2CCOCC2)cc1` (centres unmarked) [Example 6, N-(2-aminophenyl)-4-(2-morpholino-2-phenylacetamido)benzamide], the half-inhibitory concentration (IC50) against HDAC-3 came to 0.144 µM; at HDAC-1, 0.0253 µM. Take `CC(C(=O)Nc1ccc(C(=O)Nc2cc(-c3cccs3)ccc2N)cc1)N1CCOCC1` (centres unmarked) [Example 8, N-(2-Amino-5-(thiophen-2-yl)phenyl)-4-(2-morpholinopropanamido)benzamide]: the IC50 at HDAC-3 is 1.35 µM; against HDAC-1, 0.0028 µM. The corresponding values for `CC(C(=O)Nc1ccc(C(=O)Nc2cc(-c3ccc(F)cc3)ccc2N)cc1)N1CCOCC1` (centres unmarked) [Example 9] are 3.06 µM and 0.0047 µM. `CC(C(=O)Nc1ccc(C(=O)Nc2ccccc2N)cc1)N1CCCC1` (centres unmarked) [Example 1, N-(2-Amino-phenyl)-4-(2-pyrrolidin-1-yl-propionylamino)-benzamide]: on HDAC-1, the half-maximal inhibitory concentration (IC50) was 0.201 µM. As to `CC(C(=O)Nc1ccc(C(=O)Nc2cc(-c3cccs3)ccc2N)cc1F)N1CCCC1=O` (centres unmarked) [Example 11, N-(2-Amino-5-(thiophen-2-yl)phenyl)-3-fluoro-4-(2-(2-oxopyrrolidin-1-yl)propanamido)benzamide], the values for the half-inhibitory concentration (IC50) against HDAC-3 and against HDAC-1 were 1.04 µM and 0.0019 µM, respectively. On the same counts, the results for `CC(C(=O)Nc1ccc(C(=O)Nc2cc(-c3ccc(F)cc3)ccc2N)cc1)N1CCCC1` (centres unmarked) [Example 2, N-(2-Amino-5-(4-fluorophenyl)phenyl)-4-(2-(pyrrolidin-1-yl)propanamido)benzamide] are 3.11 µM and 0.003 µM. On the same counts, the results for `CC(C(=O)Nc1ccc(C(=O)Nc2cc(-c3ccc(Cl)s3)ccc2N)cc1)N1CCCC1=O` (centres unmarked) [Example 12, N-(2-Amino-5-(5-chlorothiophen-2-yl)phenyl)-4-(2-(2-oxopyrrolidin-1-yl)propanamido)benzamide] are 2.23 µM and 0.0071 µM. On the same counts, the results for `CC(C(=O)Nc1ccc(C(=O)Nc2cc(-c3cccs3)ccc2N)cc1)N1CCCC1` (centres unmarked) [Example 3, N-(2-Amino-5-(thiophen-2-yl)phenyl)-4-(2-(pyrrolidin-1-yl)propanamido)benzamide] are 2.1 µM and 0.003 µM.

Regarding `CC(C(=O)Nc1ccc(C(=O)Nc2cc(-c3cccs3)ccc2N)cc1)N1CCCC1=O` (centres unmarked) [Example 5, N-(2-Amino-5-(thiophen-2-yl)phenyl)-4-(2-(2-oxopyrrolidin-1-yl)propanamido)benzamide], the IC50 came to 1.04 µM against HDAC-3 and 0.0016 µM on HDAC-1. Turning to `CC(C(=O)Nc1ccc(C(=O)Nc2ccccc2N)cc1)N1CCCC1=O` (centres unmarked) [Example 4, N-(2-Aminophenyl)-4-(2-(2-oxopyrrolidin-1-yl)propanamido)benzamide], the 50% inhibitory concentration (IC50) against HDAC-3 was found to be 0.3 µM; against HDAC-1, 0.0915 µM.

As to `CC(C)(C(=O)Nc1ccc(C(=O)Nc2cc(-c3ccc(F)cc3)ccc2N)cc1)N1CCOCC1` [Example 10, N-(2-Amino-5-(4-fluorophenyl)phenyl)-4-(2-methyl-2-morpholinopropanamido)benzamide], the values for the IC50 on HDAC-3 and on HDAC-1 were 3.63 µM and 0.0041 µM, respectively. On to `CC(C(=O)Nc1ccc(C(=O)Nc2cc(-c3ccc(F)cc3)ccc2N)cc1)N1CCCC1=O` (centres unmarked) [Example 7, N-(2-Amino-5-(4-fluorophenyl)phenyl)-4-(2-(2-oxopyrrolidin-1-yl)propanamido)benzamide], for which the results for the IC50 against HDAC-3 and against HDAC-1 were 1.54 µM and 0.0027 µM, respectively.

Values taken from patent publication US8431610B2, “Alkanoylamino benzamide aniline HDAC inhibitor compounds” (Gilead Sciences, Inc., priority 2009, dated 2013).
